Measured values as given in ChEMBL document CHEMBL5441456, “ASAP - SARS-CoV-2 nsp3 macrodomain dose response” (2024).
Several values for one entry are separate records, joined by “and”; a condition that tells them apart may be missing. Equal entries are not always repeated.

What follows are compounds tested against Replicase polyprotein 1ab (Severe acute respiratory syndrome coronavirus 2, UniProt P0DTD1) (assay: Functional biochemical assay to identify treatments for viral infectious disease that targets SARS-COV-2 nsp3 macrodomain, whereby the mechanism of action displaces an ADP-Ribose modified peptide from the binding site. Utilizing a time-resolved fluorescence method to measure binding by reading the emitted fluorescence intensity in two wavelengths.).
Work on CC(C)[C@@H](Nc1ncnc2[nH]c(Br)cc12)c1ccc2c(c1)S(=O)(=O)CCC2 yielded an IC50 of 0.336 µM.
For CC(C)[C@@H](Nc1nc(C(F)F)nc2ccccc12)c1ccc2c(c1)OCCO2, the IC50 was > 99.5 µM.
In the case of COc1nn(C)cc1-c1cc2c(N[C@@H](c3ccc4c(c3)OCCO4)C(C)C)ncnc2[nH]1, the IC50 is reported as 1.79 µM and 1.91 µM.
CCc1[nH]nnc1NC(=O)c1cc2c(N[C@@H](c3ccc4c(c3)OCCO4)C(C)C)ncnc2[nH]1 was tested, and the IC50 was 4.42 µM and 4.28 µM.
In the case of Cc1n[nH]c(C)c1-c1cc2c(N[C@@H](c3ccc4c(c3)S(=O)(=O)CCC4)C(C)C)ncnc2[nH]1, the IC50 is reported as 0.456 µM and 0.272 µM and 0.503 µM.
COc1nc(NC(=O)c2cc3c(N[C@@H](c4ccc5c(c4)OCCO5)C(C)C)ncnc3[nH]2)n[nH]1 showed an IC50 of 47.2 µM.
For O=C(NCc1nc(-c2cc3c(N4CCCC5(CC5)C4)ncnc3[nH]2)c[nH]1)c1ccc(F)nc1, the IC50 was 24.8 µM and 20.8 µM.
O=C(O)c1ccc(C(=O)N2CCC(c3ccn4ncc(C(=O)N5CCCCC5)c4c3)CC2)o1 showed an IC50 of 68.1 µM.
CC(C)[C@@H](Nc1cc(-c2cc[nH]n2)ncn1)c1ccc2c(c1)OCCO2 was tested, and the IC50 was > 99.5 µM.
For CNC(=O)c1cc2c(N[C@H](c3ccc4c(c3)NC(=O)CO4)C(C)C)ncnc2[nH]1, the IC50 was 5.36 µM and 0.961 µM and 1.34 µM and 1.08 µM.
In the case of Cc1[nH]c2ncnc(NC(=O)c3ccc(Cl)cn3)c2c1C, the IC50 is reported as > 99.5 µM.
In the case of O=C(O)C[C@@H](NC(=O)Cc1c[nH]c2ncccc12)c1ccc(Br)cc1, the IC50 is reported as > 99.5 µM.
For CC(C)[C@H](Nc1cc(O)ncn1)c1ccc2c(c1)S(=O)(=O)CCC2, the IC50 was > 99.5 µM.
With O=C(O)C[C@@H](NC(=O)c1ncnc2[nH]ccc12)c1ccc(NCc2ccno2)cc1 the IC50 was 11.3 µM and 13.1 µM.
CCn1nccc1-c1cc2c(N[C@@H](c3ccc4c(c3)OCCO4)C(C)C)ncnc2[nH]1 was tested, and the IC50 was 0.892 µM and 1.42 µM and 1.29 µM.
Cc1cc(-c2cc3c(N[C@@H](c4ccc5c(c4)OCCO5)C(C)C)ncnc3[nH]2)c[nH]1 was tested, and the IC50 was 9.53 µM and 10.2 µM.
With Cc1ncc(-c2cc3c(N[C@@H](c4ccc5c(c4)OCCO5)C(C)C)ncnc3[nH]2)o1 the IC50 was 1.16 µM and 1.35 µM and 1.4 µM.
For CCNC(=O)c1cc2c(N[C@@H](c3cc4c(cc3Cl)OCO4)C(C)C)ncnc2[nH]1, the IC50 was 6.22 µM and 4.92 µM.
For CCOC(=O)C1=C(Nc2cc(C)cc(C)c2)OCC1=O, the IC50 was > 99.5 µM.
With O=C(c1ncc[nH]1)N1CCC(c2ccn3ncc(C(=O)N4CCCCC4)c3c2)CC1 the IC50 was > 99.5 µM.
In the case of O=C(Nc1ccc(C(=O)Nc2c(C(=O)O)[nH]c3ccccc23)cc1)NC1CC1, the IC50 is reported as > 99.5 µM.
CCNC(=O)c1cc2c(N[C@@H](C(=O)NC3CCOCC3)C(C)C)ncnc2[nH]1 was tested, and the IC50 was > 99.5 µM.
For CC(C)[C@@H](Nc1ncnc2[nH]c([C@@H]3CCOC3)cc12)c1ccc2c(c1)OCCO2, the IC50 was 1.86 µM and 1.95 µM.
With COC(=O)C[C@@H](NC(=O)c1ncnc2[nH]ccc12)c1ccc(Br)cc1 the IC50 was > 99.5 µM.
CC(C)[C@@H](Nc1ncnc2[nH]cc(C#N)c12)c1ccc2c(c1)OCCO2 was tested, and the IC50 was 4.36 µM and 3.82 µM.
In the case of CC(C)[C@@H](Nc1ncnc2[nH]c(-c3ccnc(C#N)c3)cc12)c1ccc2c(c1)OCCO2, the IC50 is reported as 2.09 µM and 2.22 µM.
With COc1cnn(C)c1-c1cc2c(N[C@@H](c3ccc4c(c3)OCCO4)C(C)C)ncnc2[nH]1 the IC50 was 50.9 µM and 55.9 µM.
With CC[C@@H]1C[C@@H](C(=O)Nc2ncnc3[nH]c(C)c(C)c23)CCO1 the IC50 was > 124 µM.
With CC(C)[C@@H](Nc1ncnc2[nH]c(-c3cn[nH]c3)cc12)c1ccc2c(c1)OCCO2 the IC50 was 0.713 µM and 0.737 µM.
For Cc1ncnc2c1C[C@@H](C(=O)N(C)CC[C@@H](Nc1ncnc3[nH]ccc13)C(C)C)CC2, the IC50 was > 99.5 µM.
With CC(C)[C@@H](Nc1ncnc2[nH]ccc12)c1ccc2c(c1)SCCO2 the IC50 was 1.87 µM and 1.94 µM.
In the case of CCNC(=O)c1cc2c(NC3(c4ccc5c(c4)S(=O)(=O)CCC5)CCC3)ncnc2[nH]1, the IC50 is reported as 3.05 µM.
With C[C@@H](Nc1ncnc2[nH]ccc12)[C@@H]1CCCCO1 the IC50 was > 99.5 µM.
For CC(C)[C@@H](Nc1ncnc2[nH]ccc12)c1ccc2c(c1)S(=O)(=O)NCC2, the IC50 was 1.27 µM and 0.967 µM.
With Cc1n[nH]nc1C(=O)N1CCC(c2ccn3ncc(C(=O)N4CCCCC4)c3c2)CC1 the IC50 was > 99.5 µM.
With CNc1ccc([C@@H](CC(=O)O)NC(=O)c2ncnc3[nH]ccc23)cc1 the IC50 was 28.9 µM and 34.6 µM.
O=C(O)C[C@@H](CNC(=O)c1ncnc2[nH]ccc12)c1ccc(Cl)cc1 was tested, and the IC50 was 65.3 µM and 71.3 µM.
With COc1ccc2c(NC(=O)c3ccc(NC(=O)NC4CC4)cc3)c(C(=O)O)sc2c1 the IC50 was > 99.5 µM.
CC(C)[C@@H](Nc1ncnc2c1CCO2)c1ccc2c(c1)S(=O)(=O)CCC2 was tested, and the IC50 was 62.9 µM.
With O=C(O)C[C@@H](NC(=O)c1cncc2[nH]ccc12)c1ccc(Br)cc1 the IC50 was 35.8 µM and 41.3 µM.
In the case of c1ccc2c(c1)OCC[C@@H]2Nc1ncnc2[nH]ccc12, the IC50 is reported as > 99.5 µM.
With O=C(O)[C@@H]1C[C@@H](O)CN1c1ncnc2[nH]ccc12 the IC50 was > 99.5 µM.
With Cc1[nH]nc2ncc(C(=O)N[C@@H](c3ccc4c(c3)OCCO4)C(C)C)cc12 the IC50 was > 99.5 µM.
For CC(C)[C@H](Nc1cc(-n2cncn2)ncn1)c1ccc2c(c1)S(=O)(=O)CCC2, the IC50 was > 99.5 µM.
O=C(c1cccnc1S)N1CCC(c2ccn3ncc(C(=O)N4CCCCC4)c3c2)CC1 was tested, and the IC50 was 61.6 µM.
For COc1cccc(CSC[C@@H](NC(=O)c2ncnc3[nH]ccc23)C(=O)O)c1, the IC50 was > 99.5 µM.
In the case of COc1cc(Nc2ccc([C@@H](CC(=O)O)NC(=O)c3ncnc4[nH]ccc34)cc2)n[nH]1, the IC50 is reported as 7.57 µM and 7.27 µM.
COc1ccc(C(=O)Nc2ncnc3[nH]c(C)c(C)c23)cn1 was tested, and the IC50 was > 99.5 µM.
For CCC[C@@H](Nc1ncnc2[nH]ccc12)C(=O)O, the IC50 was > 99.5 µM.
For CC(C)[C@@H](Nc1ncnc2[nH]c(-c3cnn(C4CCC4)n3)cc12)c1ccc2c(c1)OCCO2, the IC50 was 3.84 µM and 3.92 µM.
For CC(C)c1c[nH]nc1NC(=O)c1ccc(NC(=O)Nc2ccccc2)cc1, the IC50 was > 99.5 µM.
O=C(O)C[C@@H](NC(=O)c1ncnc2[nH]ccc12)c1ccc(Nc2nnco2)cc1 was tested, and the IC50 was 6.57 µM and 5.48 µM.
With FC(F)[C@@H](Nc1ncnc2[nH]ccc12)c1ccc2c(c1)OCCO2 the IC50 was 16 µM and 22.8 µM.
COc1ccc([C@@H](Nc2ncnc3[nH]ccc23)C(C)C)cc1 was tested, and the IC50 was 6.36 µM and 8.21 µM.
With CC(C)[C@@H](Cc1ccc(F)cc1)NC(=O)c1ncnc2[nH]ccc12 the IC50 was > 99.5 µM.
In the case of CC(C)[C@H](Nc1ncnc(N)c1F)c1ccc2c(c1)S(=O)(=O)CCC2, the IC50 is reported as > 99.5 µM.
For Cc1[nH]c2ncnc(NC(=O)c3cc(Cl)ccn3)c2c1C, the IC50 was > 99.5 µM.
For CC(C)[C@@H](Nc1ncnc2[nH]ccc12)c1ccc2c(c1)CCCS2(=O)=O, the IC50 was 3.01 µM and 2.64 µM.
COc1ccc(S(=O)(=O)Nc2cnc3[nH]ccc3c2)cc1C(N)=O was tested, and the IC50 was > 99.5 µM.
O=C(Nc1cnc2[nH]ncc2c1)C1CCN(c2ccc3nncn3n2)CC1 was tested, and the IC50 was > 124 µM.
CCNC(=O)c1cc2c(N[C@@H](c3ccc4ncn(C)c(=O)c4c3)C(C)C)ncnc2[nH]1 was tested, and the IC50 was 0.409 µM and 0.455 µM.
Compound O=C(c1nnn[nH]1)N1CCC(c2ccn3ncc(C(=O)N4CCCCC4)c3c2)CC1 has an IC50 of 28.3 µM.
Cc1[nH]c2ncnc(NC(=O)[C@@H]3Cc4ccccc4CO3)c2c1C was tested, and the IC50 was > 99.5 µM.
CC(C)[C@@H](Nc1ncnc2[nH]c(-c3cn[nH]c3)cc12)c1ccc2c(c1)S(=O)(=O)CCC2 was tested, and the IC50 was 0.063 µM and 0.052 µM and 0.085 µM and 0.058 µM and 0.06 µM.
O=C(c1cc(O)ccn1)N1CCC(c2ccn3ncc(C(=O)N4CCCCC4)c3c2)CC1 was tested, and the IC50 was > 99.5 µM.
CCc1coc(Nc2ccc([C@@H](CC(=O)O)NC(=O)c3ncnc4[nH]ccc34)cc2)n1 was tested, and the IC50 was 13.9 µM and 15.5 µM.
In the case of CC(C)[C@@H](Nc1cc(-n2ccnn2)ncn1)c1ccc2c(c1)S(=O)(=O)CCC2, the IC50 is reported as > 99.5 µM.
With CC(C)[C@@H](Nc1ncnc2[nH]c(C(=O)NC3CN(C)C3)cc12)c1ccc2c(c1)OCCO2 the IC50 was 1.44 µM and 3.27 µM.
For CC(C)[C@@H](Nc1ncnc2[nH]ccc12)c1ccncc1, the IC50 was > 12.4 µM and 34 µM.
O=C(Nc1cccc2c(C(=O)N[C@@H](CO)c3ccc4c(c3)OCCO4)c[nH]c12)NC1CC1 was tested, and the IC50 was > 99.5 µM.
In the case of CCn1cc(-c2cc3c(N[C@@H](c4ccc5c(c4)OCCO5)C(C)C)ncnc3[nH]2)c(C)n1, the IC50 is reported as 0.423 µM and 0.473 µM.
